# Experimental data published in patent US12441768B2, “Compositions and methods for treating endometriosis” (EndoMet Biosciences, Inc., priority 2018, dated 2025).
# Where a SMILES comes first, the peptide text is derived from it.
# Columns and labels:
# [1] = molecular target: T1, β-catenin (Homo sapiens, UniProt P35222); test: KD50 measurement using competitive fluorescence polarization (FP) with labelled TCF4; assay type: binding; settings: fluorescence polarization, β-catenin; for Kd: read-out: β-Cat FP KD
# T1 sequence (P35222 1-781): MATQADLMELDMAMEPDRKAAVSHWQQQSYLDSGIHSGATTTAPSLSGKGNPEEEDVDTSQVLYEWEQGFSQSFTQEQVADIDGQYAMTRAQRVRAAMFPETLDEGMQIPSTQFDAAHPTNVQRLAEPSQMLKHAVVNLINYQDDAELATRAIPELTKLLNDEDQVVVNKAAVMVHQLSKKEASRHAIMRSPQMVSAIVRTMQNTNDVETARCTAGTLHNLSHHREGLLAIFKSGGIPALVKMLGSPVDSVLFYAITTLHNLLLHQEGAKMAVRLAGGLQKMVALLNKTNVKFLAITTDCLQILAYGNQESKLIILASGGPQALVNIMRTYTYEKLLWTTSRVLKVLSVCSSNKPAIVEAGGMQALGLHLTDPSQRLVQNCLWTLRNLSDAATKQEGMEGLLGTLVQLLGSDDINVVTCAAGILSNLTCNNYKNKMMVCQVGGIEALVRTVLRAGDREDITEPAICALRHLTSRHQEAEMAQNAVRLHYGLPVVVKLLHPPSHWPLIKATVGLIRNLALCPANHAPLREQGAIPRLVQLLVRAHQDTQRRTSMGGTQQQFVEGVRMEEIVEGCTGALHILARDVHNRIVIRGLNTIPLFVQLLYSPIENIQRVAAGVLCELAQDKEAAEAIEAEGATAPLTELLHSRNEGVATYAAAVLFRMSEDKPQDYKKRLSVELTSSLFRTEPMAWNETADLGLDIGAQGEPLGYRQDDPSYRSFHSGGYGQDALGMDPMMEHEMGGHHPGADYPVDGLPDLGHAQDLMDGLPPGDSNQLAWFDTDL
# Outline: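 Labelled TCF4 (5 nM) mixed with 100 nM β-catenin at room temperature; inhibitor added as serial dilutions from 10 nM to 30 uM. Polarization read at excitation 470 nm/emission 520 nm; binding displacement lowers polarization. Three independent runs.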
# [2] = % Viability non-Wnt responsive cells
# [3] = molecular target: Wnt-responsive promoter (TCF/LEF); test: Wnt-dependent luciferase reporter assay; assay type: cell-based, murine
# Outline: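 EC50 (uM) derived from inhibition of luminescence in Wnt3a-stimulated murine 3T3 cells expressing luciferase under a TCF/LEF promoter, with peptides added across a concentration range and vehicle as control.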
Structure (SMILES),Kd [1],viability [2],EC50 [3],β-Cat FP Hill slope [1]
CC[C@H](C)[C@H](NC(=O)[C@H](CC(C)C)NC(=O)[C@H](Cc1ccccc1)NC(=O)[C@H](Cc1c[nH]c2ccccc12)NC(=O)[C@@H](NC(=O)[C@H](CCCNC(=N)N)NC(=O)[C@H](CO)NC(=O)[C@@H](N)CCSC)[C@@H](C)CC)C(=O)N[C@@H](CO)C(=O)N[C@@H](Cc1ccccc1)C(=O)N[C@@H](Cc1c[nH]c2ccccc12)C(=O)NCC(=O)O [compound 55] (H-MSRIWFLISFWG-OH),> 30 µM,101%,< 7.5 µM,
"CC[C@H](C)[C@@H]1NC(=O)[C@H](CC(C)C)NC(=O)[C@H](Cc2ccccc2)NC(=O)[C@H](Cc2c[nH]c3ccccc23)NC(=O)[C@@H](NC(C)=O)CCCCNC(=O)CC[C@@H](C(=O)O)NC(=O)[C@H](Cc2c[nH]c3ccccc23)NC(=O)[C@H](C)NC(=O)[C@H](CO)NC1=O [compound 187] (HELM PEPTIDE1{[ac].K.W.F.L.I.S.A.W.E}$PEPTIDE1,PEPTIDE1,2:R3-10:R3$$$V2.0)",1 to 10 µM,90.3%,7.5 to 15 µM,0.7
"CC[C@H](C)[C@@H]1NC(=O)[C@H](CC(C)C)NC(=O)[C@H](Cc2ccccc2)NC(=O)[C@H](Cc2c[nH]c3ccccc23)NC(=O)[C@@H](N)CCCCNC(=O)C[C@@H](C(=O)O)NC(=O)[C@H](Cc2c[nH]c3ccccc23)NC(=O)[C@H](Cc2ccccc2)NC(=O)[C@H](CS)NC1=O [compound 172] (HELM PEPTIDE1{K.W.F.L.I.C.F.W.D}$PEPTIDE1,PEPTIDE1,1:R3-9:R3$$$V2.0)",1 to 10 µM,90.8%,< 7.5 µM,0.7
CC[C@H](C)[C@H](NC(=O)[C@H](Cc1c[nH]c2ccccc12)NC(=O)[C@@H](N)CCSC)C(=O)N[C@@H](CC(C)C)C(=O)N[C@H](C(=O)N[C@H](C(=O)N[C@@H](Cc1ccccc1)C(=O)N[C@@H](Cc1c[nH]c2ccccc12)C(=O)NCC(=O)O)[C@@H](C)O)[C@@H](C)CC [compound 150] (H-MWILITFWG-OH),> 30 µM,99.8%,< 7.5 µM,
CC[C@H](C)[C@H](NC(=O)[C@H](CC(C)C)NC(=O)[C@H](Cc1ccccc1)NC(=O)[C@H](Cc1c[nH]c2ccccc12)NC(=O)[C@@H](N)CCSC)C(=O)N[C@@H](CS)C(=O)N[C@@H](Cc1cn(C)cn1)C(=O)N[C@@H](Cc1c[nH]c2ccccc12)C(=O)NCC(=O)O [compound 140] (HELM PEPTIDE1{M.W.F.L.I.C.[Cn1cnc(C[C@H](N[*:1])C(=O)[*:2])c1].W.G}$$$$V2.0),,102%,15 to 22.5 µM,0.7
CCCC[C@H](N)C(=O)N[C@@H](Cc1c[nH]c2ccccc12)C(=O)N[C@@H](Cc1ccccc1)C(=O)N[C@@H](CC(C)C)C(=O)N[C@H](C(=O)N[C@@H](CS)C(=O)N[C@@H](Cc1ccccc1)C(=O)N[C@@H](Cc1c[nH]c2ccccc12)C(=O)NCC(=O)O)[C@@H](C)CC [compound 164] (HELM PEPTIDE1{[Nle].W.F.L.I.C.F.W.G}$$$$V2.0),0.4 to 1 µM,100%,< 7.5 µM,0.7
CC[C@H](C)[C@H](NC(=O)[C@H](CC(C)C)NC(=O)[C@H](Cc1ccccc1)NC(=O)[C@H](Cc1c[nH]c2ccccc12)NC(=O)[C@@H](N)CCSC)C(=O)N[C@@H](CCCCN)C(=O)N[C@@H](Cc1ccccc1)C(=O)N[C@@H](Cc1ccc(O)cc1)C(=O)NCC(=O)O [compound 151] (H-MWFLIKFYG-OH),0.4 to 1 µM,107%,15 to 22.5 µM,0.7
"CC[C@H](C)[C@@H]1NC(=O)[C@H](CC(C)C)NC(=O)[C@H](Cc2ccccc2)NC(=O)[C@H](Cc2c[nH]c3ccccc23)NC(=O)[C@H](CCSC)NC(=O)CCCNC(=O)C[C@@H](C(=O)O)NC(=O)[C@H](Cc2c[nH]c3ccccc23)NC(=O)[C@H](C)NC(=O)[C@H](CS)NC1=O [compound 191] (HELM PEPTIDE1{[O=C(CCCN[*:1])[*:2]].M.W.F.L.I.C.A.W.D}$PEPTIDE1,PEPTIDE1,1:R1-10:R3$$$V2.0)",0.4 to 1 µM,99.1%,7.5 to 15 µM,1.3
"CC[C@H](C)[C@H](NC(=O)[C@@H]1CCC(=O)NCCCC[C@H](N)C(=O)N[C@@H](Cc2c[nH]c3ccccc23)C(=O)N[C@@H](Cc2ccccc2)C(=O)N1)C(=O)N[C@@H](CO)C(=O)N[C@@H](Cc1ccccc1)C(=O)N[C@@H](Cc1c[nH]c2ccccc12)C(=O)NCC(=O)O [compound 208] (HELM PEPTIDE1{K.W.F.E.I.S.F.W.G}$PEPTIDE1,PEPTIDE1,1:R3-4:R3$$$V2.0)",1 to 10 µM,93.4%,7.5 to 15 µM,0.69
"CC[C@H](C)[C@@H]1NC(=O)[C@H](CC(C)C)NC(=O)[C@H](Cc2ccc(O)cc2)NC(=O)[C@H](Cc2c[nH]c3ccccc23)NC(=O)[C@H](CCSC)NC(=O)[C@H](CCCNC(=N)N)NC(=O)[C@H](CO)NC(=O)[C@@H](N)CCCCNC(=O)[C@H](Cc2c[nH]c3ccccc23)NC(=O)[C@H](Cc2ccccc2)NC(=O)[C@H](CO)NC1=O [compound 32] (HELM PEPTIDE1{K.S.R.M.W.Y.L.I.S.F.W}$PEPTIDE1,PEPTIDE1,1:R3-11:R2$$$V2.0)",> 30 µM,93%,> 30 µM,
CC[C@H](C)[C@H](NC(=O)[C@H](CC(C)C)NC(=O)[C@H](Cc1ccccc1)NC(=O)[C@H](Cc1c[nH]c2ccccc12)NC(=O)[C@H](CCSC)NC(=O)[C@H](CCCNC(=N)N)NC(=O)[C@H](CO)NC(=O)[C@@H](N)CCSC)C(=O)N[C@@H](CO)C(=O)N[C@@H](Cc1ccccc1)C(=O)N[C@@H](Cc1c[nH]c2ccccc12)C(N)=O [compound 72] (H-MSRMWFLISFW-NH2),> 30 µM,88.6%,> 30 µM,
"CC[C@H](C)[C@@H]1NC(=O)[C@H](CC(C)C)NC(=O)[C@H](C2CCCCC2)NC(=O)[C@H](Cc2c[nH]c3ccccc23)NC(=O)[C@@H](N)CCCCNC(=O)C[C@@H](C(=O)O)NC(=O)[C@H](Cc2c[nH]c3ccccc23)NC(=O)[C@H](C)NC(=O)[C@H](CO)NC1=O [compound 204] (HELM PEPTIDE1{K.W.[O=C([C@@H](N[*:1])C1CCCCC1)[*:2]].L.I.S.A.W.D}$PEPTIDE1,PEPTIDE1,1:R3-9:R3$$$V2.0)",0.4 to 1 µM,108%,< 7.5 µM,0.74
CC[C@H](C)[C@H](NC(=O)[C@H](CC(C)C)NC(=O)[C@H](Cc1ccccc1)NC(=O)[C@H](Cc1c[nH]c2ccccc12)NC(=O)[C@@H](N)CCSC)C(=O)N[C@@H](CCC(N)=O)C(=O)N[C@@H](Cc1ccccc1)C(=O)N[C@@H](Cc1c[nH]c2ccccc12)C(=O)NCC(=O)O [compound 143] (H-MWFLIQFWG-OH),> 30 µM,104%,7.5 to 15 µM,
"CC[C@H](C)[C@@H]1NC(=O)[C@H](CC(C)C)NC(=O)[C@H](Cc2ccccc2)NC(=O)[C@H](Cc2c[nH]c3ccccc23)NC(=O)[C@@H](N)CC(=O)NCCCC[C@@H](C(=O)NCC(=O)O)NC(=O)[C@H](Cc2c[nH]c3ccccc23)NC(=O)[C@H](Cc2ccccc2)NC(=O)[C@H](CS)NC1=O [compound 176] (HELM PEPTIDE1{D.W.F.L.I.C.F.W.K.G}$PEPTIDE1,PEPTIDE1,1:R3-9:R3$$$V2.0)",10 to 30 µM,109%,7.5 to 15 µM,0.85
"CC[C@H](C)[C@@H]1NC(=O)[C@H](CC(C)C)NC(=O)[C@H](Cc2ccccc2)NC(=O)[C@H](Cc2c[nH]c3ccccc23)N(C)C(=O)[C@H](CCSC)NC(=O)[C@H](CCCNC(=N)N)NC(=O)[C@H]([C@@H](C)CC)NC(=O)[C@H](CCSC)NC(=O)[C@@H](N)CCCCNC(=O)CCCCCCCNC(=O)CNC(=O)[C@H](Cc2c[nH]c3ccccc23)NC(=O)[C@H](Cc2ccccc2)NC(=O)[C@H](CO)NC1=O [compound 21] (HELM PEPTIDE1{K.M.I.R.M.[meW].F.L.I.S.F.W.G.[O=C(CCCCCCCN[*:1])[*:2]]}$PEPTIDE1,PEPTIDE1,1:R3-14:R2$$$V2.0)",> 30 µM,98.7%,> 30 µM,
CC[C@H](C)[C@H](NC(=O)[C@H](CC(C)C)NC(=O)[C@H](Cc1ccccc1)NC(=O)[C@H](Cc1c[nH]c2ccccc12)NC(=O)[C@@H](N)CCSC)C(=O)N[C@@H](CS)C(=O)N[C@@H](Cc1ccccc1)C(=O)N[C@@H](Cc1c[nH]c2ccccc12)C(=O)NCCCC(=O)O [compound 153] (HELM PEPTIDE1{M.W.F.L.I.C.F.W.[O=C(O)CCCN[*:1]]}$$$$V2.0),> 30 µM,104%,< 7.5 µM,
